Data set [1] addresses human VMAT2 (Homo sapiens (Human), UniProt Q05940). Description: VMAT2 radioligand binding, 3H-dihydrotetrabenazine competition on human platelet homogenate. The settings on record: 10 nM 3H-dihydrotetrabenazine, human platelet homogenate, 25° C., 90 minutes; read-out: VMAT2 Ki. In outline:
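Human platelet homogenate (30 μg membrane protein/well) in DPBS with 1 mM EDTA, pH 7.4; twelve test-compound concentrations competed against 10 nM ³H-dihydrotetrabenazine. Incubated 90 min at 25 °C, bound radioligand collected by filtration on PEI-pretreated glass-fibre filters and counted by scintillation; Ki derived.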

Data set [2] in a line: Stability of compounds in human liver microsomes. In kind it is in vitro ADME. As to conditions: for CLint scaled at 0.5 μM / half-life at 0.5 μM: both sexes, pH 7.4; for CLint scaled at 0.5 μM: liver microsomes, calculated from HLM half-life, read-out: HLM Scaled Intrinsic Clearance; for CLint scaled at 0.5 μM / Predicted Max. Bioavailability (% F) / HLM Predicted Systemic Clearance: human; for half-life at 0.5 μM: 0.5 μM compound, 0.5 mg/mL human liver microsomes, 37° C., maxed at 420 minutes, read-out: HLM Elimination half-life (t1/2, min); for Predicted Max. Bioavailability (% F): predicted from HLM data; for HLM Predicted Systemic Clearance: scaled from HLM half-life (Obach method). In outline: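 Compound at 0.5 μM incubated at 37 °C with pooled mixed-gender human liver microsomes (0.5 mg/mL protein) and an NADPH-generating system in pH 7.4 phosphate buffer, sampled 0–60 min. Parent depletion tracked by LC-MS/MS; t1/2 derived from the slope by non-linear regression, with predicted extraction ratio and maximum bioavailability also calculated.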

Data set [3] deals with male Sprague-Dawley rats. The experiment in a line: Open-field hypolocomotion / locomotor activity (LMA) assay. It is filed as in vivo. The settings on record: Rattus norvegicus, pre-treatment 60 or 120 minutes, beam breaks in 30 min, read-out: ED50, reduction of locomotor activity. The method, then:
The effect of VMAT2 inhibitors on dopamine depletion was measured using the locomotor activity (LMA) assay. Following a pre-treatment time of 60 or 120 minutes, male Sprague-Dawley rats (200-250 g) were placed in a clear cage surrounded by photocell detectors (San Diego Instruments). Rat locomotor activity was detected by breaks in the photocell beams and activity is defined as the number of beam breaks in 30 min. Data was analyzed by one-way analysis of variance (ANOVA; SigmaStat version 3.0.1, SPSS, Chicago, Ill.) followed by the Student Newman Keuls post-hoc test for significance.

Data set [4] deals with male Wistar rats. Description: Conditioned avoidance response (CAR) assay of antipsychotic activity. The settings on record: for Avoidance and escape failures: 0.3 mg/kg, oral, Wistar rats; for ED50: Rattus norvegicus, read-out: ED50, conditioned avoidance response. In kind it is in vivo, rat. The method, then:
Animals: Adult male Wistar rats from Envigo (Indianapolis, Ind.) were used in this study. Rats were received at approximately 150 g, assigned unique identification numbers and group housed 2-3 per cage in ventilated cages. All rats were examined, handled, and weighed prior to initiation of the study to assure adequate health and suitability. During the course of the study, 12/12 light/dark cycles were maintained. The RT was maintained between 20° C. and 23° C. with a relative humidity around 50%. Chow and water were provided ad libitum for the duration of the study. All testing was conducted during the light cycle of the rats.
Compound 4-1 (0.03, 0.1, 0.3, and 1 mg/kg) was formulated in 0.25% methyl cellulose and administered orally at a dose volume of 3 mL/kg 120 minutes prior to test.
Compound 4-15 (0.03, 0.1, 0.3, and 1 mg/kg) was formulated in 0.25% methyl cellulose and administered orally at a dose volume of 3 mL/kg 120 minutes prior to test.
In the CAR paradigm, an animal is trained to respond to a conditioned stimulus (auditory and visual) by negative reinforcement (foot shock). Numerous studies have shown that typical and atypical antipsychotic drugs selectively suppress CAR, thus making it an ideal assay to screen potential antipsychotic compounds (Wadenberg & Hicks, Neuroscience and Biobehavioral Reviews, (1999) 23:851-862).
Rats were placed in the CAR two-way shuttle box and the training period of 20 trials ensued. A trial consisted of a 10-sec presentation of an 80 dB white noise followed by a scrambled 0.6 mA foot shock lasting up to 20 sec. The inter-trial interval ranged from 20-60 sec. The rat learned to avoid shock by moving from one compartment to the other when the cue is presented. […] The following measures were captured from the assay:
Avoidance response: If the rat moved from one compartment to the other during the cued-stimulus (CS) presentation. Decreased avoidance responding is the typical signature of an efficacious dose of an antipsychotic.
Avoidance response data were expressed as the number of avoidance responses as well as percent of avoidance responses based on the three baseline responses prior to drug test. Escape failures were expressed as the total number of failures during the test session.
Body weight and avoidance data were analyzed by analysis of variance (ANOVA) followed by Dunnett's post-hoc comparisons when appropriate. Escape failures were analyzed by Kruskal-Wallis nonparametric analysis followed by Dunn's post hoc comparisons when appropriate. Results are reported as mean SEM. An effect was considered statistically significant if p<0.05.

For data set [5], the system named is VMAT2. The settings on record: Scherman et al. 1983; read-out: IC50, inhibition of catecholamine uptake by VMAT2; cited from earlier work.
For data set [6] the following is noted: once formed, in patients administered (±)-TBZ; cited from earlier work.

Structures are written as SMILES.

Chain of human VMAT2 (Q05940 whole entry): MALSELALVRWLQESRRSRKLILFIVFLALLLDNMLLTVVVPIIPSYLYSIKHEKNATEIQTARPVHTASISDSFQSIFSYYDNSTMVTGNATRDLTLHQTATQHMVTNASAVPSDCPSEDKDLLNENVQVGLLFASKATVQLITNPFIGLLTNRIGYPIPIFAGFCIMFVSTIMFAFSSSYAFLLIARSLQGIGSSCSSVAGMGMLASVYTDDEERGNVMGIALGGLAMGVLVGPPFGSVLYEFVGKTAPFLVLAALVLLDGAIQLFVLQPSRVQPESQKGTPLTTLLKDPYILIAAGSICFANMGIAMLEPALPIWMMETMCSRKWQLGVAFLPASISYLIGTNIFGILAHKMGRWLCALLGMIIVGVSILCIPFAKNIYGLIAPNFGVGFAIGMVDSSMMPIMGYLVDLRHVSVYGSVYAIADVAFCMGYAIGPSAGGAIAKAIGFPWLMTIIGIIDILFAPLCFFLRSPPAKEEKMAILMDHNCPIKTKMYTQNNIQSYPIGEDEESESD

`COc1cc2c(cc1OCC(F)(F)F)CCN1C[C@@H](CC(C)(C)C)[C@H](O)C[C@H]21` [Compound 4-1, (2R,3R,11bR)-3-(2,2-dimethylpropyl)-10-methoxy-9-(2,2,2-trifluoroethoxy)-1H,2H,3H,4H,6H,7H,11bH-pyrido[2,1-a]isoquinolin-2-ol]: the inhibition constant (Ki) in data set [1] worked out at 2.4 nM. In data set [2], the CLint scaled at 0.5 μM was no more than 2.97 mL/min/kg, the half-life at 0.5 μM is no less than 420 min, the “Predicted Max. Bioavailability (% F)” value is reported as no less than 87 % F and the “HLM Predicted Systemic Clearance” value is no more than 2.59 mL/min/kg. Also, the ED50 in data set [3] came out at 0.24 mg/kg. In data set [4], the “Avoidance and escape failures” value was “reduction in avoidance without significant increase in escape failures”; the 50% effective dose (ED50) came to 0.55 mg/kg.

Regarding `COc1cc2c(cc1OC[C@@H](C)O)CCN1C[C@@H](CC(C)(C)C)[C@H](O)C[C@H]21` [Compound 4-55, (2R,3R,11bR)-3-(2,2-dimethylpropyl)-9-[(2R)-2-hydroxypropoxy]-10-methoxy-1H,2H,3H,4H,6H,7H,11bH-pyrido[2,1-a]isoquinolin-2-ol], in data set [1], the inhibitory constant (Ki) is 4.8 nM. Also, in data set [2], the CLint scaled at 0.5 μM was no more than 2.97 mL/min/kg, the half-life at 0.5 μM was no less than 420 min, the “Predicted Max. Bioavailability (% F)” value is no less than 87 % F and the “HLM Predicted Systemic Clearance” value is no more than 2.59 mL/min/kg. In addition, in data set [3], the ED50 turned out to be 0.29 mg/kg.

Take `COc1cc2c(cc1OC)C1CC(=O)C(CC(C)C)CN1CC2` (racemic) [(±)-TBZ, (±)-Tetrabenazine]: the IC50 in data set [5] was […].

As to `COc1cc2c(cc1OCC1(F)CC1)CCN1C[C@@H](CC(C)(C)C)[C@H](O)C[C@H]21` [Compound 4-31, (2R,3R,11bR)-3-(2,2-dimethylpropyl)-9-[(1-fluorocyclopropyl)methoxy]-10-methoxy-1H,2H,3H,4H,6H,7H,11bH-pyrido[2,1-a]isoquinolin-2-ol], the Ki in data set [1] was found to be 1.6 nM. Also, in data set [2], the CLint scaled at 0.5 μM is no more than 2.97 mL/min/kg, the half-life at 0.5 μM is no less than 420 min, the “Predicted Max. Bioavailability (% F)” value is no less than 87 % F and the “HLM Predicted Systemic Clearance” value is no more than 2.59 mL/min/kg. Further, the ED50 in data set [3] was determined as 0.31 mg/kg.

For `COc1cc2c(cc1OCCC(F)(F)F)CCN1C[C@@H](CC(C)(C)C)[C@H](O)C[C@H]21` [Compound 4-15, (2R,3R,11bR)-3-(2,2-dimethylpropyl)-10-methoxy-9-(3,3,3-trifluoropropoxy)-1H,2H,3H,4H,6H,7H,11bH-pyrido[2,1-a]isoquinolin-2-ol], the inhibition constant Ki in data set [1] was 1.1 nM. Moreover, in data set [2], the CLint scaled at 0.5 μM was 4.05 mL/min/kg, the half-life at 0.5 μM was determined as 308 min, the “Predicted Max. Bioavailability (% F)” value is reported as 83 % F and the “HLM Predicted Systemic Clearance” value is 3.37 mL/min/kg. Besides, in data set [3], the 50% effective dose (ED50) was 0.18 mg/kg. Besides, in data set [4], the “Avoidance and escape failures” value is recorded as “reduction in avoidance without significant increase in escape failures”; the ED50 amounted to 0.44 mg/kg.

Consider `COc1cc2c(cc1OC)C1CC(O)C(CC(C)C)CN1CC2` (stereo not drawn) [[+]-beta-DHTBZ, 3-isobutyl-9,10-dimethoxy-1,3,4,6,7,11b-hexahydro-2H-pyrido[2,1-a]isoquinolin-2-ol], for which the half-life result in data set [6] was “approximately 5 hours”.

With `COc1cc2c(cc1OC1CC1)CCN1C[C@@H](CC(C)(C)C)[C@H](O)C[C@H]21` [Compound 4-27, (2R,3R,11bR)-9-cyclopropoxy-3-(2,2-dimethylpropyl)-10-methoxy-1H,2H,3H,4H,6H,7H,11bH-pyrido[2,1-a]isoquinolin-2-ol], in data set [1], the Ki was found to be 1 nM. Also, in data set [2], the CLint scaled at 0.5 μM is no more than 2.97 mL/min/kg, the half-life at 0.5 μM is no less than 420 min, the “Predicted Max. Bioavailability (% F)” value is on record as no less than 87 % F and the “HLM Predicted Systemic Clearance” value was no more than 2.59 mL/min/kg. Further, in data set [3], the 50% effective dose (ED50) was 0.14 mg/kg.

Turning to `COc1cc2c(cc1OCc1ccccc1)CCN1C[C@@H](CC(C)(C)C)[C@H](O)C[C@H]21` [Compound 4-60, (2R,3R,11bR)-9-(benzyloxy)-3-(2,2-dimethylpropyl)-10-methoxy-1H,2H,3H,4H,6H,7H,11bH-pyrido[2,1-a]isoquinolin-2-ol], in data set [1], the Ki was 3.1 nM. In addition, in data set [2], the CLint scaled at 0.5 μM is 33.9 mL/min/kg, the half-life at 0.5 μM was 37 min, the “Predicted Max. Bioavailability (% F)” value is 37 % F and the “HLM Predicted Systemic Clearance” value is 12.58 mL/min/kg.

Take `COc1cc2c(cc1OC[C@H](O)C(F)(F)F)CCN1C[C@@H](CC(C)(C)C)[C@H](O)C[C@H]21` [Compound 4-50, (2R,3R,11bR)-3-(2,2-dimethylpropyl)-10-methoxy-9-[(2S)-3,3,3-trifluoro-2-hydroxypropoxy]-1H,2H,3H,4H,6H,7H,11bH-pyrido[2,1-a]isoquinolin-2-ol]: in data set [1], the inhibitory constant (Ki) was found to be 1.4 nM. Also, in data set [2], the CLint scaled at 0.5 μM is no more than 2.97 mL/min/kg, the half-life at 0.5 μM is no less than 420 min, the “Predicted Max. Bioavailability (% F)” value was no less than 87 % F and the “HLM Predicted Systemic Clearance” value is no more than 2.59 mL/min/kg. Besides, the ED50 in data set [3] turned out to be 0.21 mg/kg.

Usually Ki stands for the equilibrium dissociation constant of an inhibitor or competing ligand from its target. Usually ED50 stands for the dose at which the effect has come halfway, by size or by number of responders. A word on the IC50: it is the concentration that inhibits the measured activity by half.

Values taken from patent US11718618B2, “Substituted pyrido[2,1-a]isoquinolines as VMAT2 inhibitors” (priority 2021, dated 2023).
